# Assay results published in paper PMC8055447 (Journal of medicinal chemistry, 2019).
# Legend:
# [1] = test system: sodium channels; conditions: from 2 μM to 50 μM, rat DRG neurons, overnight incubation, veratridine 30 μM
# [2] = test system: EV-D68 viral capsid protein VP1 expression; assay: Immunofluorescence imaging of viral capsid protein VP1 in infected RD cells; assay type: cell-based; conditions: 9 hpi; for VP1 protein expression (immunofluorescence imaging): 1 μM, US/KY/14-18953, MOI = 1
# [3] = test system: EV-D68 viral capsid protein VP1 expression; assay: Western blot of viral capsid protein VP1 in infected RD cells; assay type: cell-based; conditions: 9 hpi, US/KY/14-18953, MOI = 1
# [4] = test system: EV-D68 US/KY/14-18953 virus; assay: Viral CPE assay, EV-D68 US/KY/14-18953 in RD cells; assay type: cell-based, enterovirus D68 (EV-D68); conditions: EV-D68 US/KY/14-18953, RD cells
SMILES,inhibition of sodium current conductance [1],VP1 protein expression (immunofluorescence imaging) [2],VP1 expression (western blot) ([3]; 1 μM),"SI (selectivity index, CC50/EC50) [4]","fluorescent signal of VP1 (immunofluorescence imaging) ([2]; 3 μM, US/KY/14-18953, MOI = 1, vs DMSO control)",VP1 expression (western blot) ([3]; 3 μM)
"CN(C)CCNC(=O)c1cc(-c2ccccc2)nc2ccccc12 [Compound 10a, N-[2-(dimethylamino)ethyl]-2-phenylquinoline-4-carboxamide]",minimal to no effect,completely blocked,completely blocked,,,
"CN(C)CCNC(=O)c1cc(-c2cccs2)nc2ccccc12 [Compound 12a, N-[2-(dimethylamino)ethyl]-2-(thiophen-2-yl)quinoline-4-carboxamide]",,completely blocked,completely blocked,> 600,,
"O=C(NCCN1CCCC1)c1cc(-c2cccs2)nc2ccccc12 [Compound 12c, N-[2-(pyrrolidin-1-yl)ethyl]-2-(thiophen-2-yl)quinoline-4-carboxamide]",,completely blocked,completely blocked,> 600,,
"CCCCOc1cc(C(=O)NCCN(CC)CC)c2ccccc2n1 [Dibucaine, dibucaine, reference compound]",,,,,significantly reduced,nearly completely inhibited
